The values below come from patent publication US20250074943A1, “DLL3 BINDING PEPTIDES AND USES THEREOF” (AMGEN INC., priority 2021, published 2025).

Like-named read-outs stand apart in the source and are kept apart here. Bridge positions count the residues as written; N and C are the ends. Peptide text beside a SMILES is read from it.

This test has as its target T1, recombinant DLL3 ectodomain (rhDLL3-Fc) (Homo sapiens, UniProt Q9NYJ7).
T1 construct: The recombinant DLL3 ectodomain (rhDLL3-Fc) was biotinylated; Fc
T1 sequence (Q9NYJ7 27-492 limits assumed): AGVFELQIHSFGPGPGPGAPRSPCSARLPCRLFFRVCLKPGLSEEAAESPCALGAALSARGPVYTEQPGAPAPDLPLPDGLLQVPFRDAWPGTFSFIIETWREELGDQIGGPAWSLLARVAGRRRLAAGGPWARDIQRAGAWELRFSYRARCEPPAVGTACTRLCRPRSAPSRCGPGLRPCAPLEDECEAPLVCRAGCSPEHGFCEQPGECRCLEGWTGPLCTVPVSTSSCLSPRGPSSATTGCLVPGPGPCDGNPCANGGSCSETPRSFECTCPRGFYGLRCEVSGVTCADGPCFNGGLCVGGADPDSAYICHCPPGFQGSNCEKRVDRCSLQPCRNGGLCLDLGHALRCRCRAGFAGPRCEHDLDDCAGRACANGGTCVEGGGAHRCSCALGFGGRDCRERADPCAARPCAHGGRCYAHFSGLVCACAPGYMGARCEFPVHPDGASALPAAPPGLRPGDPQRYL
Description: Binding kinetic assay using Bio-layer interferometry (BLI). To be noted: for binding mode to DLL3: peptides at 20, 4 and 0.8 μM, fit to 1:1 Langmuir binding model; for affinity: wider dose-response 10×KD to 0.1×KD. On the procedure:
Binding kinetic assays were performed using Bio-layer interferometry (BLI) technology. The recombinant DLL3 ectodomain (rhDLL3-Fc) was biotinylated using EZ-Link Sulfo-NHS-LC-LC-Biotin Kit according to the manufacturer's protocol (Pierce by Thermo Fisher Scientific). The recombinant protein was incubated with an excess of NHS-LC-LC Biotin ester, in a molar ratio of 1:3 (protein: biotin), at 25° C. for 90 min. The un-reacted biotin ester was removed by subsequent buffer exchange on 0.5 ml Zeba spin desalting columns 7K MWCO (Pierce by Thermo Fisher Scientific).
(In general: BLI is a label-free optical method that tracks binding on a fibre tip over time.)

Where [1] appears, read: Table 4, ± values from three independent experiments, read-out: RT (residence time) (converted).
The mark [2] stands for this setting: range over the seven peptides, read-out: residence time.

As a reminder, the residence time is how long the partners stay bound on average. With `CC(C)[C@H](NC(=O)[C@@H](NC(=O)[C@H](CCC(=O)O)NC(=O)[C@H](C)N)[C@@H](C)O)C(=O)N[C@@H](CCC(=O)O)C(=O)N[C@@H](Cc1ccccc1)C(=O)N[C@@H](Cc1ccc(O)cc1)C(=O)NCC(=O)N[C@H]1CSSC[C@@H](C(=O)N[C@@H](C)C(=O)N[C@@H](Cc2c[nH]c3ccccc23)C(N)=O)NC(=O)[C@H]([C@@H](C)O)NC(=O)[C@H](Cc2ccc(O)cc2)NC(=O)[C@H](CC(=O)O)NC(=O)[C@H](Cc2c[nH]c3ccccc23)NC(=O)CNC(=O)[C@H](Cc2ccc(O)cc2)NC(=O)[C@H](Cc2ccc(O)cc2)NC(=O)[C@H](CCC(N)=O)NC1=O` [PepSP1176] (H-AETVEFYGCQYYGWDYTCAW-NH2; disulfide 9-18), the “binding mode to DLL3” value is “dose-response saturable binding”. For the same compound, the residence time under setting [1] is 1.12 min.
As a reminder, the Kd is the constant that tells how readily two partners part at equilibrium. For the compound `CC(C)[C@@H]1NC(=O)CNC(=O)[C@H](CCC(=O)O)NC(=O)[C@H]([C@@H](C)O)NC(=O)[C@H](Cc2c[nH]c3ccccc23)NC(=O)[C@H](Cc2ccc(O)cc2)NC(=O)[C@@H](NC(=O)[C@@H](NC(=O)[C@H](Cc2c[nH]c3ccccc23)NC(=O)[C@H](Cc2ccccc2)NC(=O)[C@H](CCC(=O)O)NC(=O)[C@@H](NC(=O)[C@@H](NC(=O)[C@H](CCC(=O)O)NC(=O)[C@H](C)N)[C@@H](C)O)C(C)C)[C@@H](C)O)CSSC[C@@H](C(=O)N[C@@H](CCCNC(=N)N)C(=O)N[C@@H](Cc2c[nH]c3ccccc23)C(N)=O)NC(=O)CNC(=O)[C@H](CO)NC1=O` [PepSP1151] (H-AETVEFWTCYWTEGVSGCRW-NH2; disulfide 9-18), the “binding mode to DLL3” value was “dose-response saturable binding”. Under “Table 4, global fitting 1:1 Langmuir, koff vs kon ratio, ± values from three independent experiments”, the Kd is 125 nM. Moreover, the residence time under setting [1] was 2.78 min.
As for `CSCC[C@@H]1NC(=O)[C@H](CO)NC(=O)[C@@H](NC(=O)CNC(=O)[C@H](Cc2ccc(O)cc2)NC(=O)[C@H](Cc2ccccc2)NC(=O)[C@H](CCC(=O)O)NC(=O)[C@@H](NC(=O)[C@@H](NC(=O)[C@H](CCC(=O)O)NC(=O)[C@H](C)N)[C@@H](C)O)C(C)C)CSSC[C@@H](C(=O)N[C@@H](C)C(=O)N[C@@H](Cc2c[nH]c3ccccc23)C(N)=O)NC(=O)[C@H]([C@@H](C)O)NC(=O)[C@H](C(C)C)NC(=O)CNC(=O)[C@H](CCCNC(=N)N)NC(=O)[C@H](Cc2c[nH]c3ccccc23)NC(=O)[C@H](CC(=O)O)NC1=O` [PepSP1158] (H-AETVEFYGCSMDWRGVTCAW-NH2; disulfide 9-18), the “binding mode to DLL3” value is on record as “dose-response saturable binding”. Further, the residence time under setting [1] was 0.517 min.
Consider `CC(C)[C@H](NC(=O)[C@@H](NC(=O)[C@H](CCC(=O)O)NC(=O)[C@H](C)N)[C@@H](C)O)C(=O)N[C@@H](CCC(=O)O)C(=O)N[C@@H](Cc1ccccc1)C(=O)N[C@@H](Cc1ccc(O)cc1)C(=O)NCC(=O)N[C@H]1CSSC[C@@H](C(=O)N[C@@H](C)C(=O)N[C@@H](Cc2c[nH]c3ccccc23)C(N)=O)NC(=O)[C@H]([C@@H](C)O)NC(=O)[C@H](Cc2c[nH]c3ccccc23)NC(=O)CNC(=O)[C@H](CCCCN)NC(=O)[C@H](Cc2c[nH]c3ccccc23)NC(=O)[C@H](CC(=O)O)NC(=O)[C@H](Cc2c[nH]c3ccccc23)NC(=O)[C@H](CCCCN)NC1=O` [PepSP1168] (H-AETVEFYGCKWDWKGWTCAW-NH2; disulfide 9-18; N-terminus assumed), for which the “binding mode to DLL3” value is on record as “dose-response saturable binding”. For the same compound, the residence time under setting [1] is 0.733 min.
In the case of `CC(C)C[C@@H]1NC(=O)[C@@H](NC(=O)[C@H](Cc2ccc(O)cc2)NC(=O)[C@H](CC(=O)O)NC(=O)[C@H](Cc2ccccc2)NC(=O)[C@H](CCC(=O)O)NC(=O)[C@@H](NC(=O)[C@@H](NC(=O)[C@H](CCC(=O)O)NC(=O)[C@H](C)N)[C@@H](C)O)C(C)C)CSSC[C@@H](C(=O)N[C@@H](CCC(N)=O)C(=O)N[C@@H](CC(N)=O)C(N)=O)NC(=O)CNC(=O)[C@H](Cc2c[nH]c3ccccc23)NC(=O)[C@H](C)NC(=O)[C@H](CC(=O)O)NC(=O)[C@@H]2CCCN2C(=O)[C@H](C)NC(=O)[C@H](Cc2c[nH]c3ccccc23)NC1=O` [PepSP1159] (H-AETVEFDYCLWAPDAWGCQN-NH2; disulfide 9-18; N-terminus assumed), the “binding mode to DLL3” value is reported as “dose-response saturable binding”. Further, under setting [1], the residence time is 0.1 min.
Take `CC(C)[C@H](NC(=O)[C@@H](NC(=O)[C@H](CCC(=O)O)NC(=O)[C@H](C)N)[C@@H](C)O)C(=O)N[C@@H](CCC(=O)O)C(=O)N[C@@H](Cc1ccccc1)C(=O)N[C@@H](Cc1c[nH]c2ccccc12)C(=O)N[C@@H](CC(=O)O)C(=O)N[C@H]1CSSC[C@@H](C(=O)N[C@H](C(=O)N[C@@H](Cc2c[nH]c3ccccc23)C(N)=O)[C@@H](C)O)NC(=O)[C@H]([C@@H](C)O)NC(=O)[C@H](Cc2c[nH]c3ccccc23)NC(=O)[C@H](CC(=O)O)NC(=O)[C@H](CC(=O)O)NC(=O)[C@H]([C@@H](C)O)NC(=O)[C@H](CC(N)=O)NC(=O)CNC(=O)[C@H](Cc2c[nH]c3ccccc23)NC1=O` [PepSP1161] (H-AETVEFWDCWGNTDDWTCTW-NH2; disulfide 9-18; N-terminus assumed): the “binding mode to DLL3” value is listed as “dose-response saturable binding” and the affinity result is listed as “double-digit nM range”. The “RT (residence time)” value (Table 4, ± values from three independent experiments) stood at 87.8 ± 6 s. For the same compound, the residence time under setting [1] was 1.46 min. Besides, the residence time under setting [2] lay in the range of 1 to 3 min.
With `CC(C)[C@@H]1NC(=O)[C@H](CO)NC(=O)[C@@H](NC(=O)CNC(=O)[C@H](Cc2ccc(O)cc2)NC(=O)[C@H](Cc2ccccc2)NC(=O)[C@H](CCC(=O)O)NC(=O)[C@@H](NC(=O)[C@@H](NC(=O)[C@H](CCC(=O)O)NC(=O)[C@H](C)N)[C@@H](C)O)C(C)C)CSSC[C@@H](C(=O)N[C@@H](CO)C(=O)N[C@@H](Cc2c[nH]c3ccccc23)C(N)=O)NC(=O)[C@H]([C@@H](C)O)NC(=O)[C@H](Cc2c[nH]c3ccccc23)NC(=O)CNC(=O)[C@H](CC(=O)O)NC(=O)[C@H](C)NC(=O)[C@H](CC(N)=O)NC1=O` [PepSP1170] (H-AETVEFYGCSVNADGWTCSW-NH2; disulfide 9-18), the “binding mode to DLL3” value is “dose-response saturable binding”. Under setting [1], the residence time is 0.717 min.
With `CC(C)[C@H](NC(=O)[C@@H](NC(=O)[C@H](CCC(=O)O)NC(=O)[C@H](C)N)[C@@H](C)O)C(=O)N[C@@H](CCC(=O)O)C(=O)N[C@@H](Cc1ccccc1)C(=O)N[C@@H](Cc1c[nH]c2ccccc12)C(=O)N[C@@H](CO)C(=O)N[C@H]1CSSC[C@@H](C(=O)NCC(=O)N[C@@H](Cc2c[nH]c3ccccc23)C(N)=O)NC(=O)[C@H](CO)NC(=O)[C@H](Cc2ccc(O)cc2)NC(=O)[C@H]([C@@H](C)O)NC(=O)[C@H](Cc2ccc(O)cc2)NC(=O)[C@H](CCC(=O)O)NC(=O)[C@H](CC(=O)O)NC(=O)[C@H](C)NC(=O)[C@H](C)NC(=O)CNC(=O)CNC(=O)[C@H](Cc2c[nH]c3ccccc23)NC(=O)[C@H](Cc2c[nH]c3ccccc23)NC(=O)[C@H](CCCCN)NC1=O` [PepSP1182] (H-AETVEFWSCKWWGGAADEYTYSCGW-NH2; disulfide 9-23; N-terminus assumed), the “binding mode to DLL3” value is “dose-response saturable binding” and the affinity entry is “double-digit nM range”. Further, the residence time under setting [1] is 1.61 min. The residence time under setting [2] lay within 1 to 3 min.
Regarding `CC(C)[C@H](NC(=O)[C@@H](NC(=O)[C@H](CCC(=O)O)NC(=O)[C@H](C)N)[C@@H](C)O)C(=O)N[C@@H](CCC(=O)O)C(=O)N[C@@H](Cc1ccccc1)C(=O)N[C@@H](Cc1ccc(O)cc1)C(=O)NCC(=O)N[C@H]1CSSC[C@@H](C(=O)N[C@@H](CO)C(=O)N[C@@H](Cc2c[nH]c3ccccc23)C(N)=O)NC(=O)[C@H]([C@@H](C)O)NC(=O)[C@H](Cc2ccc(O)cc2)NC(=O)[C@H](CC(=O)O)NC(=O)[C@H](CC(N)=O)NC(=O)[C@H](Cc2ccc(O)cc2)NC(=O)[C@H](CC(N)=O)NC(=O)CNC(=O)[C@H](Cc2c[nH]c3ccccc23)NC1=O` [PepSP1177] (H-AETVEFYGCWGNYNDYTCSW-NH2; disulfide 9-18; N-terminus assumed), the “binding mode to DLL3” value is “dose-response saturable binding”. Besides, under setting [1], the residence time was 0.867 min.
Regarding `C[C@@H](O)[C@H](NC(=O)[C@@H]1CSSC[C@H](NC(=O)[C@H](CC(=O)O)NC(=O)[C@@H](N)Cc2c[nH]c3ccccc23)C(=O)N[C@@H](Cc2c[nH]c3ccccc23)C(=O)NCC(=O)N[C@@H](CC(N)=O)C(=O)N[C@@H]([C@@H](C)O)C(=O)N[C@@H](CC(=O)O)C(=O)N[C@@H](CC(=O)O)C(=O)N[C@@H](Cc2c[nH]c3ccccc23)C(=O)N[C@@H]([C@@H](C)O)C(=O)N1)C(=O)N[C@@H](Cc1c[nH]c2ccccc12)C(N)=O` [PepSP1269] (H-WDCWGNTDDWTCTW-NH2; disulfide 3-12; N-terminus assumed), under setting [1], the residence time is 0.333 min.
